Measurements from patent US20260198493A1, “HYDRAZIDE COMPOUND AND AGRICULTURAL/HORTICULTURAL FUNGICIDE” (Nippon Soda Co., Ltd., priority 2022, published 2026).

Experiments:
Glomerella cingulata = test: Fungicidal effect test against fungi causing grape ripe rot disease; details: Colletotrichum gloeosporioides, 72 h, read-out: growth inhibition ratio
Botrytis cinerea [1] = assay type: cell-based; details: 120 h, 25 ppm by volume, Vogel medium, 20° C., five days, dark, read-out: growth inhibition ratio
[2] = test system: Erysiphe graminis f.sp.tritici; test: Control test of wheat powdery mildew disease (sprayed young wheat seedlings); assay type: in vivo; details: Blumeria graminis, 144 h, 125 ppm by mass spray, six days after inoculation
Venturia inaequalis = test: Control test of apple scab disease (sprayed young apple seedlings); assay type: in vivo; details: 125 ppm by mass spray, 12 to 14 days after inoculation
Botrytis cinerea [3] = test: Control test of cucumber gray mold (sprayed young cucumber seedlings); assay type: in vivo; details: 96 h, four days after inoculation; for pest or weed control at 25 ppm: 25 ppm by mass spray; for pest or weed control at 125 ppm: 125 ppm by mass spray
Procedure: Then, the drug liquid was sprayed onto young cucumber seedlings cultivated in a nursery pot (variety “Jihai”-based, cotyledon stage), and then air-dried. […] They were left still in a moist room at 20° C. Four days after inoculation, leaves of the young cucumber seedlings were visually observed, and the control value was calculated from the lesion area ratio in accordance with the following equation. [formula]

Fusarium graminearum = test: microbe, parasite or virus in culture; assay type: cell-based; details: 96 h, read-out: growth inhibition ratio
Colletotrichum acutatum = test: Fungicidal effect test against fungi causing apple anthracnose; details: 96 h, read-out: growth inhibition ratio

COC(=O)N(Cc1ccc(C)cc1C)NC(=O)c1c(Oc2cccc(C3CC3)c2)cnnc1OC(C)C [b-223]
≥ 75%: inhibition of growth at 25 ppm (Glomerella cingulata) | inhibition of growth at 25 ppm (Botrytis cinerea [1]) | pest or weed control at 125 ppm [2] | pest or weed control at 125 ppm (Venturia inaequalis) | pest or weed control at 25 ppm (Botrytis cinerea [3]) | pest or weed control at 125 ppm (Botrytis cinerea [3]) | inhibition of growth at 25 ppm (Fusarium graminearum) | inhibition of growth at 25 ppm (Colletotrichum acutatum)

COC(=O)N(Cc1ccc(C)cc1C)NC(=O)c1c(Oc2cccc(Cl)c2F)nnc(Cl)c1C [b-227]
≥ 75%: inhibition of growth at 25 ppm (Glomerella cingulata) | inhibition of growth at 25 ppm (Botrytis cinerea [1]) | pest or weed control at 125 ppm [2] | pest or weed control at 125 ppm (Venturia inaequalis) | pest or weed control at 25 ppm (Botrytis cinerea [3]) | pest or weed control at 125 ppm (Botrytis cinerea [3]) | inhibition of growth at 25 ppm (Fusarium graminearum) | inhibition of growth at 25 ppm (Colletotrichum acutatum)

COC(=O)N(Cc1ccc(C)cc1C)NC(=O)c1c(C)cnnc1Oc1cccc(C2CC2)c1F [b-228]
≥ 75%: inhibition of growth at 25 ppm (Glomerella cingulata) | inhibition of growth at 25 ppm (Botrytis cinerea [1]) | pest or weed control at 125 ppm [2] | pest or weed control at 125 ppm (Venturia inaequalis) | pest or weed control at 25 ppm (Botrytis cinerea [3]) | pest or weed control at 125 ppm (Botrytis cinerea [3]) | inhibition of growth at 25 ppm (Fusarium graminearum) | inhibition of growth at 25 ppm (Colletotrichum acutatum)

COC(=O)N(Cc1ccc(OC)cc1C)NC(=O)c1c(C)cncc1Oc1cccc(C2CC2)c1 [b-229]
≥ 75%: inhibition of growth at 25 ppm (Glomerella cingulata) | inhibition of growth at 25 ppm (Botrytis cinerea [1]) | pest or weed control at 125 ppm [2] | pest or weed control at 125 ppm (Venturia inaequalis) | pest or weed control at 25 ppm (Botrytis cinerea [3]) | pest or weed control at 125 ppm (Botrytis cinerea [3]) | inhibition of growth at 25 ppm (Fusarium graminearum) | inhibition of growth at 25 ppm (Colletotrichum acutatum)

CCc1cncc(Oc2cccc(C3CC3)c2F)c1C(=O)NN(Cc1ccc(OC)cc1C)C(=O)OC [b-230]
≥ 75%: inhibition of growth at 25 ppm (Glomerella cingulata) | inhibition of growth at 25 ppm (Botrytis cinerea [1]) | pest or weed control at 125 ppm [2] | pest or weed control at 125 ppm (Venturia inaequalis) | pest or weed control at 25 ppm (Botrytis cinerea [3]) | pest or weed control at 125 ppm (Botrytis cinerea [3]) | inhibition of growth at 25 ppm (Fusarium graminearum) | inhibition of growth at 25 ppm (Colletotrichum acutatum)

COC(=O)N(Cc1ccc(C)cc1C)NC(=O)c1c(Cl)cncc1Oc1cccc(Cl)c1F [b-231]
≥ 75%: inhibition of growth at 25 ppm (Glomerella cingulata) | inhibition of growth at 25 ppm (Botrytis cinerea [1]) | pest or weed control at 125 ppm [2] | pest or weed control at 125 ppm (Venturia inaequalis) | pest or weed control at 25 ppm (Botrytis cinerea [3]) | pest or weed control at 125 ppm (Botrytis cinerea [3]) | inhibition of growth at 25 ppm (Fusarium graminearum) | inhibition of growth at 25 ppm (Colletotrichum acutatum)

Cc1ccc(CN(NC(=O)c2cc(C)nnc2Oc2cccc(C3CC3)c2F)C(=O)OC2COC2)c(C)c1 [b-232]
≥ 75%: inhibition of growth at 25 ppm (Glomerella cingulata) | inhibition of growth at 25 ppm (Botrytis cinerea [1]) | pest or weed control at 125 ppm [2] | pest or weed control at 125 ppm (Venturia inaequalis) | pest or weed control at 25 ppm (Botrytis cinerea [3]) | pest or weed control at 125 ppm (Botrytis cinerea [3]) | inhibition of growth at 25 ppm (Fusarium graminearum) | inhibition of growth at 25 ppm (Colletotrichum acutatum)
